Source: PubChem BioAssay AID1963983 (Molecular Pharmacology Branch, DTP, NCI, 2024)
pIC50: −log10 of the molar value. Values joined by “and” are separate entries in the source; they are usually repeats but may differ in a detail not shown here. Identical values can stand only once.

Tested on: 186277-243-T-J2-PDC multi-cell spheroid viability
Assay: Anticancer human tumor 186277-243-T-J2-PDC patient-derived colon adenocarcinoma cell line growth inhibition [PI3K]
Conditions: for viability, T/C: stronger effect = lower value; active means viability on the fitted dose curve at most 10% of control; inactive means the rest
Method in brief: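 Tumor cells were combined with HUVEC and MSCs into spheroids, then dosed with PI3K-inhibitor combinations over half-log ranges capped near clinical Cmax or 10 microM.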

[1] = curve of first compound, second compound 0.0316 µM
[2] = curve of first compound, second compound 0.1 µM
[3] = curve of first compound, second compound 0.316 µM
[4] = curve of first compound, second compound 1 µM
[5] = curve of first compound, second compound 3.16 µM
[6] = curve of first compound, second compound 10 µM
[7] = second compound 0.0316 µM, first compound 0.0316 µM
[8] = second compound 0.0316 µM, first compound 0.1 µM
[9] = second compound 0.0316 µM, first compound 0.316 µM
[10] = second compound 0.0316 µM, first compound 1 µM
[11] = second compound 0.0316 µM, first compound 3.16 µM
[12] = second compound 0.0316 µM, first compound 10 µM
[13] = second compound 0.1 µM, first compound 0.0316 µM
[14] = second compound 0.1 µM, first compound 0.1 µM
[15] = second compound 0.1 µM, first compound 0.316 µM
[16] = second compound 0.1 µM, first compound 1 µM
[17] = second compound 0.1 µM, first compound 3.16 µM
[18] = second compound 0.1 µM, first compound 10 µM
[19] = second compound 0.316 µM, first compound 0.0316 µM
[20] = second compound 0.316 µM, first compound 0.1 µM
[21] = second compound 0.316 µM, first compound 0.316 µM
[22] = second compound 0.316 µM, first compound 1 µM
[23] = second compound 0.316 µM, first compound 3.16 µM
[24] = second compound 0.316 µM, first compound 10 µM
[25] = second compound 1 µM, first compound 0.0316 µM
[26] = second compound 1 µM, first compound 0.1 µM
[27] = second compound 1 µM, first compound 0.316 µM
[28] = second compound 1 µM, first compound 1 µM
[29] = second compound 1 µM, first compound 3.16 µM
[30] = second compound 1 µM, first compound 10 µM
[31] = second compound 3.16 µM, first compound 0.0316 µM
[32] = second compound 3.16 µM, first compound 0.1 µM
[33] = second compound 3.16 µM, first compound 0.316 µM
[34] = second compound 3.16 µM, first compound 1 µM
[35] = second compound 3.16 µM, first compound 3.16 µM
[36] = second compound 3.16 µM, first compound 10 µM
[37] = second compound 10 µM, first compound 0.0316 µM
[38] = second compound 10 µM, first compound 0.1 µM
[39] = second compound 10 µM, first compound 0.316 µM
[40] = second compound 10 µM, first compound 1 µM
[41] = second compound 10 µM, first compound 3.16 µM
[42] = second compound 10 µM, first compound 10 µM
[43] = second compound 0.0316 µM, first compound 0.000316 µM
[44] = second compound 0.0316 µM, first compound 0.001 µM
[45] = second compound 0.0316 µM, first compound 0.00316 µM
[46] = second compound 0.0316 µM, first compound 0.01 µM
[47] = second compound 0.1 µM, first compound 0.000316 µM
[48] = second compound 0.1 µM, first compound 0.001 µM
[49] = second compound 0.1 µM, first compound 0.00316 µM
[50] = second compound 0.1 µM, first compound 0.01 µM
[51] = second compound 0.316 µM, first compound 0.000316 µM
[52] = second compound 0.316 µM, first compound 0.001 µM
[53] = second compound 0.316 µM, first compound 0.00316 µM
[54] = second compound 0.316 µM, first compound 0.01 µM
[55] = second compound 1 µM, first compound 0.000316 µM
[56] = second compound 1 µM, first compound 0.001 µM
[57] = second compound 1 µM, first compound 0.00316 µM
[58] = second compound 1 µM, first compound 0.01 µM
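Further: spheroids exposed to compounds for seven days before viability reading.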
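Wherever viability, T/C is given: 100% = DMSO vehicle control viability.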

C#Cc1c(F)ccc2cc(O)cc(-c3ncc4c(N5CC6CCC(C5)N6)nc(OCC56CCCN5CC(F)C6)nc4c3F)c12 (stereo not given) + Cc1nc(NC(=O)N2CCCC2C(N)=O)sc1-c1ccnc(C(C)(C)C(F)(F)F)c1
> 7.50: pIC50 [3] | pIC50 [4] | pIC50 [5] | pIC50 [6]
7.13: pIC50 [1]
7.33: pIC50 [2]
inactive: viability, T/C [7] 84.8% | viability, T/C [8] 37.5% | viability, T/C [9] 20% | viability, T/C [10] 13.5% | viability, T/C [11] 10.9% | viability, T/C [12] 9.63% | viability, T/C [13] 60.6% | viability, T/C [14] 29.4% | viability, T/C [15] 15.1% | viability, T/C [16] 11.4% | viability, T/C [19] 30.4% | viability, T/C [20] 15.5% | viability, T/C [25] 17.2% | viability, T/C [26] 9.55% | viability, T/C [31] 12.9%
active: viability, T/C [17] 8.35% | viability, T/C [18] 7.01% | viability, T/C [21] 7.34% | viability, T/C [22] 12.6% | viability, T/C [23] 6.32% | viability, T/C [24] 6.56% | viability, T/C [27] 10.3% | viability, T/C [28] 6.06% | viability, T/C [29] 4.61% | viability, T/C [30] 1.79% | viability, T/C [32] 5.57% | viability, T/C [33] 3.63% | viability, T/C [34] 4.54% | viability, T/C [35] 3.29% | viability, T/C [36] 1.25% | viability, T/C [37] 3.63% | viability, T/C [38] 3.77% | viability, T/C [39] 2.79% | viability, T/C [40] 2% | viability, T/C [41] 0.83% | viability, T/C [42] 0.22%

CC(=O)c1c(C)c2cnc(Nc3ccc(N4CCNCC4)cn3)nc2n(C2CCCC2)c1=O + COc1c(OCCCN2CCOCC2)ccc2c3n(c(=NC(=O)c4cnc(N)nc4)nc12)CCN3
> 9.50: pIC50 [2] | pIC50 [3] | pIC50 [4]
7.24: pIC50 [1]
active: viability, T/C [51] 3.72% | viability, T/C [52] 3.94% | viability, T/C [53] 6.08% | viability, T/C [54] 4.53% | viability, T/C [19] 4.8% | viability, T/C [20] 5.23% | viability, T/C [55] 3.84% | viability, T/C [56] 2.22% | viability, T/C [57] 3.44% | viability, T/C [58] 3.39% | viability, T/C [25] 2.44% | viability, T/C [26] 1.63%
< 7.00: pIC50 (curve of first compound, second compound 0.00316 µM) | pIC50 (curve of first compound, second compound 0.01 µM)
inactive: viability, T/C (second compound 0.00316 µM, first compound 0.000316 µM) 101% | viability, T/C (second compound 0.00316 µM, first compound 0.001 µM) 107% | viability, T/C (second compound 0.00316 µM, first compound 0.00316 µM) 97.3% | viability, T/C (second compound 0.00316 µM, first compound 0.01 µM) 94.9% | viability, T/C (second compound 0.00316 µM, first compound 0.0316 µM) 112% | viability, T/C (second compound 0.00316 µM, first compound 0.1 µM) 113% | viability, T/C (second compound 0.01 µM, first compound 0.000316 µM) 110% | viability, T/C (second compound 0.01 µM, first compound 0.001 µM) 102% | viability, T/C (second compound 0.01 µM, first compound 0.00316 µM) 87.9% | viability, T/C (second compound 0.01 µM, first compound 0.01 µM) 91.7% | viability, T/C (second compound 0.01 µM, first compound 0.0316 µM) 117% | viability, T/C (second compound 0.01 µM, first compound 0.1 µM) 99.5% | viability, T/C [43] 64.2% | viability, T/C [44] 67.2% | viability, T/C [45] 68.8% | viability, T/C [46] 58.9% | viability, T/C [7] 51.3% | viability, T/C [8] 47.2% | viability, T/C [47] 15.6% | viability, T/C [48] 14.4% | viability, T/C [49] 13.9% | viability, T/C [50] 17.4% | viability, T/C [13] 11.6% | viability, T/C [14] 13.2%

CCN1CCN(Cc2ccc(Nc3ncc(F)c(-c4cc(F)c5nc(C)n(C(C)C)c5c4)n3)nc2)CC1
inactive: viability, T/C (compound 0.00316 µM) 102% [middle of 4 runs] | viability, T/C (compound 0.01 µM) 101% [middle of 4 runs] | viability, T/C (compound 0.0316 µM) 106% [middle of 4 runs] | viability, T/C (compound 0.1 µM) 130% [middle of 4 runs] | viability, T/C (compound 0.316 µM) 146% and 156% and 145% (2×) | viability, T/C (compound 1 µM) 146% [middle of 4 runs]
< 6.00: pIC50 (curve of compound)

C=CC(=O)N1CCN(c2nc(=O)n(-c3c(C)ccnc3C(C)C)c3nc(-c4c(O)cccc4F)c(F)cc23)C(C)C1 (stereo not given) + CC(Nc1ncnc2nc[nH]c12)c1cc2cccc(Cl)c2c(=O)n1-c1ccccc1
inactive: viability, T/C [7] 100% | viability, T/C [8] 95.4% | viability, T/C [9] 91.8% | viability, T/C [10] 90.9% | viability, T/C [11] 99.7% | viability, T/C [12] 90.4% | viability, T/C [13] 99% | viability, T/C [14] 90.1% | viability, T/C [15] 96.2% | viability, T/C [16] 93.7% | viability, T/C [17] 100% | viability, T/C [18] 107% | viability, T/C [19] 95.6% | viability, T/C [20] 87.4% | viability, T/C [21] 90% | viability, T/C [22] 92.2% | viability, T/C [23] 119% | viability, T/C [24] 88.8% | viability, T/C [25] 96.1% | viability, T/C [26] 110% | viability, T/C [27] 116% | viability, T/C [28] 101% | viability, T/C [29] 112% | viability, T/C [30] 95% | viability, T/C [31] 101% | viability, T/C [32] 91.1% | viability, T/C [33] 106% | viability, T/C [34] 101% | viability, T/C [35] 107% | viability, T/C [36] 92.3% | viability, T/C [37] 93.9% | viability, T/C [38] 89% | viability, T/C [39] 93.6% | viability, T/C [40] 76.3% | viability, T/C [41] 87.5% | viability, T/C [42] 72.7%
< 5.00: pIC50 [1] | pIC50 [2] | pIC50 [3] | pIC50 [4] | pIC50 [5] | pIC50 [6]

CC(=O)c1c(C)c2cnc(Nc3ccc(N4CCNCC4)cn3)nc2n(C2CCCC2)c1=O
< 7.00: pIC50 (curve of compound)
inactive: viability, T/C (compound 0.000316 µM) 97.1% [middle of 4 runs] | viability, T/C (compound 0.001 µM) 91.1% [middle of 4 runs] | viability, T/C (compound 0.00316 µM) 91.5% and 103% and 102% (2×) | viability, T/C (compound 0.01 µM) 105% [middle of 4 runs]

CC(=O)c1c(C)c2cnc(Nc3ccc(N4CCNCC4)cn3)nc2n(C2CCCC2)c1=O + Cc1nc(NC(=O)N2CCCC2C(N)=O)sc1-c1ccnc(C(C)(C)C(F)(F)F)c1
> 9.50: pIC50 [6]
< 7.00: pIC50 [1] | pIC50 [2] | pIC50 [3] | pIC50 [4]
inactive: viability, T/C [43] 96.5% | viability, T/C [44] 95% | viability, T/C [45] 96% | viability, T/C [46] 114% | viability, T/C [7] 123% | viability, T/C [8] 138% | viability, T/C [47] 97.7% | viability, T/C [48] 106% | viability, T/C [49] 104% | viability, T/C [50] 109% | viability, T/C [13] 136% | viability, T/C [14] 135% | viability, T/C [51] 101% | viability, T/C [52] 113% | viability, T/C [53] 109% | viability, T/C [54] 101% | viability, T/C [19] 124% | viability, T/C [20] 126% | viability, T/C [55] 104% | viability, T/C [56] 102% | viability, T/C [57] 99.5% | viability, T/C [58] 107% | viability, T/C [25] 94.3% | viability, T/C [26] 83.6% | viability, T/C (second compound 3.16 µM, first compound 0.000316 µM) 58.7% | viability, T/C (second compound 3.16 µM, first compound 0.001 µM) 53.6% | viability, T/C (second compound 3.16 µM, first compound 0.00316 µM) 59.2% | viability, T/C (second compound 3.16 µM, first compound 0.01 µM) 53.3% | viability, T/C [31] 46.1% | viability, T/C [32] 37.4% | viability, T/C (second compound 10 µM, first compound 0.000316 µM) 20.9% | viability, T/C (second compound 10 µM, first compound 0.001 µM) 12.4% | viability, T/C (second compound 10 µM, first compound 0.00316 µM) 13.7% | viability, T/C (second compound 10 µM, first compound 0.01 µM) 11.6% | viability, T/C [37] 15.4% | viability, T/C [38] 10.5%
7.72: pIC50 [5]
